The values that follow come from article PMC11997999, “Uncovering α-Selectivity for Liver X Receptor Agonists for Lipotoxic Cancer Therapies” (Journal of Medicinal Chemistry, 2025).

The target of one assay is T1, LXRα LBD (GST) (Homo sapiens, UniProt Q13133).
T1 construct: 5 nM LXRα LBD (GST); 10 nM LXRβ LBD (GST); purchased ThermoFisher Scientific PV4655
T1 sequence (Q13133 209-447 limits assumed): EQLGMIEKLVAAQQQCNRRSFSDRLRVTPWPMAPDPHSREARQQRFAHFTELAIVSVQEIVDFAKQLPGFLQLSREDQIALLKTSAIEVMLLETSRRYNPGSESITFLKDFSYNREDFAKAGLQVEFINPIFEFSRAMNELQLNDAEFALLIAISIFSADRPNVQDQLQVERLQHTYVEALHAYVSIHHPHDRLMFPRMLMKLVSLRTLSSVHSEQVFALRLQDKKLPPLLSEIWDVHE
Briefly: Time-resolved LXR FRET assay (LanthaScreen TR-FRET LXRα Coactivator Assay Kit). Format: biochemical. The following applies: 5 nM LXRα LBD (GST), read after 6 h; R^2 of fit given; read-out: TR-FRET activity (EC50) LXRα. As for the experimental part: (§1) The biochemical TR-FRET assays were performed using the LanthaScreen TR-FRET LXRα Coactivator Assay Kit, goat (ThermoFisher Scientific, PV4655), and the LanthaScreen TR-FRET LXRβ assay kit, goat (ThermoFisher Scientific, PV4658), according to the manufacturer’s instructions using the following concentrations: 5 nM LXRα LBD (GST); 10 nM LXRβ LBD (GST); 500 nM fluorescein-TRAP220/DRIP-2; 200 nM fluorescein-D22; 10 nM Tb anti-GST antibody. The TR-FRET signals were measured after 6 h using a TECAN SPARK multimode microplate reader with the following settings: first excitation wavelength: 360 nm (bandwidth 35 nm), first emission wavelength: 485 nm (bandwidth 20 nm); second excitation wavelength: 360 nm (bandwidth 35 nm), second emission wavelength: 535 nm (bandwidth 25 nm); integration time: 200 μs; lag time: 100 μs; settle time: 0 ms.
On the technique in general: In TR-FRET formats the signal depends on donor and acceptor labels being close together.

Another assay has as its target T2, LXRβ LBD (GST) (Homo sapiens, UniProt P55055).
T2 construct: 5 nM LXRα LBD (GST); 10 nM LXRβ LBD (GST); purchased ThermoFisher Scientific PV4658
T2 sequence (P55055 222-460 limits assumed): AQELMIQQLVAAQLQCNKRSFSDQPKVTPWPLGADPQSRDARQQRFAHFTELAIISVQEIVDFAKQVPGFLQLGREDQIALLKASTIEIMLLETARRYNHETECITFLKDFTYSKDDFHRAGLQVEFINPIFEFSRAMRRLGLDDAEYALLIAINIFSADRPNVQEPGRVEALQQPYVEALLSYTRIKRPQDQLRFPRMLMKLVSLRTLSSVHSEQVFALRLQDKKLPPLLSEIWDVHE
Briefly: Time-resolved LXR FRET assay (LanthaScreen TR-FRET LXRβ assay kit). The class given is biochemical. The following applies: 10 nM LXRβ LBD (GST), read after 6 h; R^2 of fit given; read-out: TR-FRET activity (EC50) LXRβ. As for the experimental part: as §1

The next assay has as its target T3, LXRα (Homo sapiens, UniProt Q13133).
T3 construct: To measure the activity of the remaining isoform under treatment; endogenous in cells; host or cells: Hep3B (NR1H2 knockout, LXRE-GFP reporter)
T3 sequence (Q13133 1-447): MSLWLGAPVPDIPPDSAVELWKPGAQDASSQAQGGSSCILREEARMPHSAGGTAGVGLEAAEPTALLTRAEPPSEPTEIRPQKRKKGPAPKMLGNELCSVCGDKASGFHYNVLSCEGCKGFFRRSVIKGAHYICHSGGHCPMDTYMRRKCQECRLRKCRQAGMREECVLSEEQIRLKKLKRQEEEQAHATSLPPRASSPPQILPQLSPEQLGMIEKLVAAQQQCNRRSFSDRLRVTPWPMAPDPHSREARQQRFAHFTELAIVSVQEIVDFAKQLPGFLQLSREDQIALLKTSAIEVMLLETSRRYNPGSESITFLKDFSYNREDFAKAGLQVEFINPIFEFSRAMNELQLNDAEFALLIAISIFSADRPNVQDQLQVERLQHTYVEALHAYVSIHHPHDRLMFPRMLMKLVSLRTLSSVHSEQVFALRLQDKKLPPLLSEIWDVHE
Briefly: LXRα-specific LXRE-GFP reporter assay in Hep3B cells (NR1H2 knockout). The following applies: 48h of treatment, GFP by FACS. The class given is cell-based. Background: In a reporter assay the amount or activity of a reporter protein is the signal.

The target in a further assay is T4, LXRβ (Homo sapiens, UniProt P55055).
T4 construct: To measure the activity of the remaining isoform under treatment; endogenous in cells; host or cells: Hep3B (NR1H3 knockout, LXRE-GFP reporter)
T4 sequence (P55055 1-460): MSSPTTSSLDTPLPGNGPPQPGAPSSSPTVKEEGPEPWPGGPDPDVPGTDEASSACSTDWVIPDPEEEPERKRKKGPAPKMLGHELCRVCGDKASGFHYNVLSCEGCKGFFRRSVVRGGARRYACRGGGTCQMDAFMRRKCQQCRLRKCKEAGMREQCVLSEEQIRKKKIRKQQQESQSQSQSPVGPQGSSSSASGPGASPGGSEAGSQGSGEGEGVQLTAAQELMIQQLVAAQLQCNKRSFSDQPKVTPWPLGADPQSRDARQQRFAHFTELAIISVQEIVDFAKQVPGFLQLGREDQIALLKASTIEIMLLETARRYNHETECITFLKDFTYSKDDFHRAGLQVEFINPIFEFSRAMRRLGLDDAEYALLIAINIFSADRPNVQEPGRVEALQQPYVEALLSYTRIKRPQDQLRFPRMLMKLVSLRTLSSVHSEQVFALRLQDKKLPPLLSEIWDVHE
Briefly: LXRβ-specific LXRE-GFP reporter assay in Hep3B cells (NR1H3 knockout). The following applies: 48h of treatment, GFP by FACS. The class given is cell-based.

In assay [1] the test system is Akt1^Myr; Myc^OE HCC organoids. Briefly: Cell viability analysis in HCC organoids (CellTiter-Glo 3D). Format: cell-based, murine. The following applies: 5d, with 4 μM sorafenib. The text has this:
Finally, we analyzed the efficacy of compound 40 in preclinical treatment studies in three-dimensional liver cancer organoid cultures. HCC organoids driven by myristoylated Akt1 and overexpressed Myc (Akt1^Myr; Myc^OE) were isolated from murine liver tumors and subjected to monotherapies of sorafenib, compound 40, or a combination thereof (Figure 7C). The therapeutic outcome was side-by-side compared with combinatorial therapies comprising the established agonists T0901317 (1) and GW3965 (2). […] Isolation of murine HCC organoid cultures was performed from liver tumors derived from C57BL/6 mice using established protocols.[26] The animal experiments were approved by committees of the regional authority of the state of Baden-Wuerttemberg (Regierungspraesidium Tuebingen, authorization number M15/18G) as appropriate. After digestion, the organoids were embedded in 100% Growth Factor Reduced (GFR) MatrigelTM (Corning) and cultured at 37 °C and 5% CO2 in HCC organoid medium supplemented with nicotinamide (10 mM), N-acetylcystein (1.25 mM), human HGF (50 ng/mL), human FGF-10 (100 ng/mL), human R-Spondin (0.5 μg/mL), forskolin (10 μM), A83- 01 (0.5 μM), murine Noggin (50 ng/mL), gastrin I (10 nM), human BMP-7 (25 ng/mL), human Wnt3a (100 ng/mL), B27 supplement (1×) and N2 supplement (1×). The cultures were split by mechanical dissociation every 3 to 4 days. […] Cell viability was determined after 5 days of treatment using the CellTiter-Glo 3D Cell Viability Assay Kit (Promega). Cell viability of Hep3B, AML12, and BNL CL.2 cells was determined after 5 days of treatment in white 96 well plates (Sarstedt) using the CellTiter-Glo 2.0 Cell Viability Assay Kit (Promega). […] The luminescence signal was measured using an […] M PLEX plate reader (Tecan) and the Tecan i-control software (v3.9.1). […]
(Cellular ATP, detected with luciferase, serves as a proxy for viable cell number.)

As usually defined, the EC50 is the concentration at which the effect is half-maximal. Consider `O=C(O)Cc1cccc(OCCCN(Cc2cccc(C(F)(F)F)c2Cl)CC(c2ccccc2)c2ccccc2)c1` [GW3965 (2), reference compound], for which the EC50 on LXRα LBD (GST) came to 87 nM; on LXRβ LBD (GST), 24 nM; at LXRα, 320 nM; at LXRβ it was 40 nM. The “therapeutic efficacy (cell viability) in combination with sorafenib” value in assay [1] is given as “dose-dependent response”.
